# Measurements: patent US6737383B1, “Herbicidal oxadiazolidines” (priority 1999, dated 2004)
# Experiments:
# pigweed = assay: Test B pre/postemergence pigweed; format: in vivo, Amaranthus retroflexus
# In short: (§1)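 Response is a visual 0-to-10 score relative to untreated plants, where 0 means no effect and 10 means complete control, taken twelve to sixteen days after application. Treatments went onto soil at planting and onto foliage of 1- to 4-leaf plants, using a surfactant-containing non-phytotoxic solvent.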
# cocklebur = assay: Test B pre/postemergence cocklebur; format: in vivo, Xanthium strumarium
# In short: as §1
# bamyardgrass = assay: Test B flood test barnyardgrass; format: in vivo, Echinochloa crus-galli
# In short: (§2)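 Read-out is a visual response score from 0 (no effect) to 10 (complete control), assigned by comparison with untreated controls. Treatment was applied at the 2-leaf stage, and plants stayed in the greenhouse for twelve to sixteen days before scoring.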
# purple nutsedge = assay: Test B pre/postemergence purple nutsedge; format: in vivo, Cyperus rotundus
# In short: as §1
# morningglory = assay: Test B pre/postemergence morningglory; format: in vivo, Ipomoea hederacea
# In short: as §1
# blackgrass = assay: Test B pre/postemergence blackgrass; format: in vivo, Alopecurus myosuroides
# In short: as §1
# giant foxtail = assay: Test B pre/postemergence giant foxtail; format: in vivo, Setaria faberii
# In short: as §1
# duck salad = assay: Test B flood test duck salad; format: in vivo, Heteranthera limosa
# In short: as §2
# surinam grass = assay: Test B pre/postemergence surinam grass; format: in vivo, Brachiaria decumbens
# In short: as §1
# sugar beet = assay: Test B pre/postemergence sugar beet; format: in vivo, Beta vulgaris
# In short: as §1
# wild oat = assay: Test B pre/postemergence wild oat; format: in vivo, Avena fatua
# In short: as §1
# soybean = assay: Test B pre/postemergence soybean; format: in vivo, Glycine max
# In short: as §1
# rape = assay: Test B pre/postemergence rape; format: in vivo, Brassica napus
# In short: as §1
# smallflower flatsedge = assay: Test B flood test smallflower flatsedge; format: in vivo, Cyperus difformis
# In short: as §2
# wheat = assay: Test B pre/postemergence wheat; format: in vivo, Triticum aestivum
# In short: as §1
# bedstraw = assay: Test B pre/postemergence bedstraw; format: in vivo, Galium aparine; settings: Postemergence
# In short: as §1
# [1] = Postemergence, Rate 62 g/ha, scale 0 to 10, 0 is no effect, 10 is complete control
# [2] = Postemergence, Rate 125 g/ha, scale of 0 to 10 where 0 is no effect and 10 is complete control
# [3] = Preemergence, Rate 62 g/ha, scale of 0 to 10 where 0 is no effect and 10 is complete control
# [4] = Preemergence, Rate 125 g/ha, scale of 0 to 10 where 0 is no effect and 10 is complete control
# [5] = Preemergence, Rate 250 g/ha, scale 0 to 10 (0 no effect, 10 complete control)
# [6] = Preemergence, Rate 500 g/ha, scale of 0 to 10 where 0 is no effect and 10 is complete control
# [7] = Rate 500 g/ha, Postemergence, scale 0 to 10, 0 is no effect, 10 is complete control
# [8] = Postemergence, Rate 250 g/ha, scale of 0 to 10, 0 is no effect, 10 is complete control
# [9] = Rate 62 g/ha, flood test species, Pre-emergence, visual evaluation after twelve to sixteen days
# [10] = Rate 125 g/ha, under heading Pre-emergence, flood test species, visual evaluation after twelve to sixteen days
# [11] = Rate 250 g/ha, Pre-emergence (flood test species), scale 0 to 10, 0 is no effect, 10 is complete control
# [12] = Rate 500 g/ha, Pre-emergence section of Table B, 0 to 10 scale (0 no effect, 10 complete control)
compound,measurement,setting,value
CC(C)N(C(=O)n1oc(=O)n(CC2CCCCO2)c1=O)c1ccccc1 (stereo not shown) [Compound 659],"Plant response rating, Redroot pigweed",pigweed; [1],0
same,Redroot pigweed plant response rating,pigweed; [2],0
same,Redroot pigweed plant response rating,pigweed; [3],6
same,Redroot pigweed plant response rating,pigweed; [4],6
same,"Plant response rating, Redroot pigweed",pigweed; [5],9
same,"Plant response rating, Redroot pigweed",pigweed; [6],10
same,Redroot pigweed plant response rating,pigweed; [7],7
same,"Plant response rating, Cocklebur",cocklebur; [1],0
same,Cocklebur plant response rating,cocklebur; [2],0
same,Cocklebur plant response rating,cocklebur; [8],0
same,Cocklebur plant response rating,cocklebur; [3],0
same,Cocklebur plant response rating,cocklebur; [4],0
same,"Plant response rating, Cocklebur",cocklebur; [5],0
same,"Plant response rating, Cocklebur",cocklebur; [6],0
same,Cocklebur plant response rating,cocklebur; [7],2
same,"Plant response rating, Barnyardgrass (0 to 10 scale, 0 is no effect, 10 is complete control)",bamyardgrass; [9],0
same,"Barnyardgrass plant response rating (0 to 10 scale, 0 is no effect, 10 is complete control)",bamyardgrass; [10],2
same,Barnyardgrass plant response rating,bamyardgrass; [11],2
same,Barnyardgrass plant response rating,bamyardgrass; [12],7
same,"Plant response rating, Nutsedge",purple nutsedge; [1],0
same,Nutsedge plant response rating,purple nutsedge; [2],0
same,Nutsedge plant response rating,purple nutsedge; [3],0
same,Nutsedge plant response rating,purple nutsedge; [4],0
same,"Plant response rating, Nutsedge",purple nutsedge; [5],0
same,"Plant response rating, Nutsedge",purple nutsedge; [6],0
same,Nutsedge plant response rating,purple nutsedge; [7],0
same,"Plant response rating, Morningglory",morningglory; [1],4
same,Morningglory plant response rating,morningglory; [2],10
same,Morningglory plant response rating,morningglory; [8],10
same,Morningglory plant response rating,morningglory; [3],0
same,Morningglory plant response rating,morningglory; [4],0
same,"Plant response rating, Morningglory",morningglory; [5],0
same,"Plant response rating, Morningglory",morningglory; [6],6
same,Morningglory plant response rating,morningglory; [7],10
same,"Plant response rating, Blackgrass",blackgrass; [1],1
same,Blackgrass plant response rating,blackgrass; [2],6
same,Blackgrass plant response rating,blackgrass; [8],7
same,Blackgrass plant response rating,blackgrass; [3],3
same,Blackgrass plant response rating,blackgrass; [4],6
same,"Plant response rating, Blackgrass",blackgrass; [5],7
same,"Plant response rating, Blackgrass",blackgrass; [6],9
same,Blackgrass plant response rating,blackgrass; [7],7
same,"Plant response rating, Giant foxtail",giant foxtail; [1],5
same,Giant foxtail plant response rating,giant foxtail; [2],7
same,Giant foxtail plant response rating,giant foxtail; [8],8
same,Giant foxtail plant response rating,giant foxtail; [3],9
same,Giant foxtail plant response rating,giant foxtail; [4],9
same,"Plant response rating, Giant foxtail",giant foxtail; [5],9
same,"Plant response rating, Giant foxtail",giant foxtail; [6],10
same,Giant foxtail plant response rating,giant foxtail; [7],8
same,"Plant response rating, Ducksalad (0 to 10 scale, 0 is no effect, 10 is complete control)",duck salad; [9],0
same,"Ducksalad plant response rating (0 to 10 scale, 0 is no effect, 10 is complete control)",duck salad; [10],0
same,Ducksalad plant response rating,duck salad; [11],0
same,Ducksalad plant response rating,duck salad; [12],0
same,"Plant response rating, B. signalgrass",surinam grass; [1],0
same,"Plant response rating, B. signalgrass",surinam grass; [2],5
same,B. signalgrass plant response rating,surinam grass; [8],5
same,B. signalgrass plant response rating,surinam grass; [3],2
same,B. signalgrass plant response rating,surinam grass; [4],4
same,"Plant response rating, B. signalgrass",surinam grass; [5],4
same,"Plant response rating, B. signalgrass",surinam grass; [6],8
same,B. signalgrass plant response rating,surinam grass; [7],8
same,"Plant response rating, Sugarbeets",sugar beet; [1],0
same,Sugarbeets plant response rating,sugar beet; [2],0
same,Sugarbeets plant response rating,sugar beet; [3],0
same,Sugarbeets plant response rating,sugar beet; [4],0
same,"Plant response rating, Sugarbeets",sugar beet; [5],0
same,"Plant response rating, Sugarbeets",sugar beet; [6],5
same,Sugarbeets plant response rating,sugar beet; [7],4
same,"Plant response rating, Wild oats",wild oat; [1],0
same,Wild oats plant response rating,wild oat; [2],0
same,Wild oats plant response rating,wild oat; [3],0
same,Wild oats plant response rating,wild oat; [4],0
same,"Plant response rating, Wild oats",wild oat; [5],3
same,"Plant response rating, Wild oats",wild oat; [6],9
same,Wild oats plant response rating,wild oat; [7],3
same,"Plant response rating, Soybean",soybean; [1],2
same,Soybean plant response rating,soybean; [2],3
same,Soybean plant response rating,soybean; [3],0
same,Soybean plant response rating,soybean; [4],0
same,"Plant response rating, Soybean",soybean; [5],0
same,"Plant response rating, Soybean",soybean; [6],2
same,Soybean plant response rating,soybean; [7],7
same,"Plant response rating, Rape",rape; [1],0
same,Rape plant response rating,rape; [2],0
same,Rape plant response rating,rape; [3],0
same,Rape plant response rating,rape; [4],0
same,"Plant response rating, Rape",rape; [5],2
same,"Plant response rating, Rape",rape; [6],10
same,Rape plant response rating,rape; [7],1
same,"Plant response rating, S. Flatsedge (0 to 10 scale, 0 is no effect, 10 is complete control)",smallflower flatsedge; [9],0
same,"S. Flatsedge plant response rating (0 to 10 scale, 0 is no effect, 10 is complete control)",smallflower flatsedge; [10],0
same,S. Flatsedge plant response rating,smallflower flatsedge; [11],0
same,S. Flatsedge plant response rating,smallflower flatsedge; [12],5
same,"Plant response rating, Wheat",wheat; [1],0
same,Wheat plant response rating,wheat; [2],0
same,Wheat plant response rating,wheat; [3],0
same,Wheat plant response rating,wheat; [4],0
same,"Plant response rating, Wheat",wheat; [5],2
same,"Plant response rating, Wheat",wheat; [6],7
same,Wheat plant response rating,wheat; [7],5
same,"Plant response rating, Bedstraw","bedstraw; Rate 62 g/ha, scale 0 to 10, 0 is no effect, 10 is complete control",0
same,Bedstraw plant response rating,"bedstraw; Rate 125 g/ha, scale of 0 to 10 where 0 is no effect and 10 is complete control",0
